Assay results taken from PMC12040169 (PLOS Biology, 2025).

Experiment: in vitro
Conditions: human, hela cells, % viability

SMILES	viability at 28.5 h, 10 µM [%]
CC(=O)NCCC(CN1CCOCC1)([N+](=O)[O-])[N+](=O)[O-] [CBK261338]	88.7
O=C(Nc1ccc(Sc2ccc([N+](=O)[O-])cc2)cc1)c1ccc2c(c1)C(=O)N(c1ccccc1-c1ccccc1)C2=O [CBK261340]	77.1
CCC(=O)NC(Nc1cc(Cl)ccc1OC)(C(F)(F)F)C(F)(F)F [CBK261342]	96.3
CCOC(=O)NC(Nc1cccc(C)n1)(C(F)(F)F)C(F)(F)F [CBK261343]	115
O=C(Nc1ccccc1)c1ccc(-c2ccccc2)cc1 [CBK261346]	107
Cc1ccc(NC(=O)c2ccc(-c3ccccc3)cc2)c(OC(=O)c2ccc(-c3ccccc3)cc2)c1 [CBK261347]	98.9
COc1cc(C2N(Cc3ccccc3)CCN2Cc2ccccc2)ccc1OC(C)=O [CBK261349]	89.2
NS(=O)(=O)c1ccc(NC(=O)CCC(=O)O)cc1 [CBK261350]	86.9
Cc1[nH]c2ccccc2c1/C=N/c1ccc(S(N)(=O)=O)cc1 [CBK261352]	96
O=C(N/N=C/c1ccc(Br)s1)c1cccc([N+](=O)[O-])c1 [CBK261354]	117
O=C(O)c1ccc(C(=O)O)c2c(C(=O)O)cccc12 [CBK261356]	82.3
C=CCNC1OC(CO)C(O)C(O)C1O (centres unmarked) [CBK261357]	88.9
CC1(C)CC(CC(=O)NN)(c2ccccc2)CCO1 (centres unmarked) [CBK261358C]	86.6
CCOc1ccc(C2(C)C(=O)N(CN3CCOCC3)C(=O)N2CN2CCOCC2)cc1 (centres unmarked) [CBK261359]	96
CCOc1ccc(C(C)(CC(=O)O)C(=O)O)cc1 (centres unmarked) [CBK261361]	102
Cc1noc(COc2ccc(OCc3nc(C)no3)cc2)n1 [CBK261364]	95.6

SMILES	viability at 28.5 h, 10 µM [%]
O=C(Nc1cccc(OC(=O)c2cccc(S(=O)(=O)N3CCOCC3)c2)c1)c1ccccc1 [CBK261365]	85.5
O=C(Nc1cccc([N+](=O)[O-])c1)c1cc(S(=O)(=O)N2CCCCC2)ccc1Cl [CBK261367]	93.9
Cc1ccc(C(=O)Nc2cccc(OC(=O)c3cc(S(=O)(=O)N4CCCCC4)ccc3Cl)c2)cc1 [CBK261368]	97.8
CC(=O)Nc1ccc(S(=O)(=O)c2cc(O)ccc2O)cc1 [CBK261372]	85.9
COC(=O)c1ccc(CO)nc1 [CBK261376C]	104
O=C(CNC(=O)c1ccncc1)N/N=C/c1c(O)ccc2ccccc12 [CBK261378]	77
Nc1cc(NC(=O)c2cccc(C(=O)Nc3ccc(Cl)c(N)c3)c2)ccc1Cl [CBK261379]	94.1
OCCNc1nc(Cl)nc(Nc2nc(-c3ccccc3)cs2)n1 [CBK261381]	86.2
N#CCCN(C1CCCCC1)S(=O)(=O)c1ccc(-c2ccc([N+](=O)[O-])cc2)cc1 [CBK261382]	90.6
NC(=O)OC(c1ccccc1[N+](=O)[O-])P(=O)(c1ccccc1)c1ccccc1 (centres unmarked) [CBK261383]	88.3
C(=N\c1ccc2c(c1)OCCOCCOc1cc(/N=C/c3ccccc3)ccc1OCCOCCO2)/c1ccccc1 [CBK261388]	100
CC(=O)Nc1ccc(-c2nc3ccc(-c4ccc5nc(-c6ccc(NC(C)=O)cc6)oc(=O)c5c4)cc3c(=O)o2)cc1 [CBK261391]	107
O=C(O)c1cc(NC(=O)c2cccc(N3C(=O)c4ccc([N+](=O)[O-])cc4C3=O)c2)cc(C(=O)O)c1 [CBK261394]	90.5
CC(C)(C)C(=O)Nc1ccc(-c2nc3ccc(Cc4ccc5nc(-c6ccc(NC(=O)C(C)(C)C)cc6)oc(=O)c5c4)cc3c(=O)o2)cc1 [CBK261396]	104
O=C1c2ccc(Oc3cccc(Oc4ccc5c(c4)C(=O)N(c4ccccn4)C5=O)c3)cc2C(=O)N1c1ccccn1 [CBK261397]	89.8
O=C1c2ccc(Oc3cccc(Oc4ccc5c(c4)C(=O)N(CCO)C5=O)c3)cc2C(=O)N1CCO [CBK261398]	110
